ChEMBL document CHEMBL1201862, “PubChem BioAssay data set” (2004)
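Following 48 hours of exposure in 96-well plates, responses at five concentrations were used to interpolate endpoints linearly. GI50: concentration for 50% inhibition of growth.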 The source made the active and inactive calls. No stated cut-off is given here; in the data, active = GI50 up to about 1.1 µM and inactive = higher.

Tests used:
Experiment in all cases: NCI tumour cell line growth inhibition, 48 h
[1] = test system: ACHN
[2] = test system: OVCAR-5
[3] = test system: IGROV-1
[4] = test system: HCT-15
[5] = test system: SK-MEL-2
[6] = test system: DMS-114
[7] = test system: XF498
[8] = test system: SNB-19
[9] = test system: HL-60
[10] = test system: LOX IMVI
[11] = test system: UACC-62
[12] = test system: SF-268
[13] = test system: DMS-273
[14] = test system: SF-539
[15] = test system: CAKI-1
[16] = test system: KM12
[17] = test system: HOP-62
[18] = test system: M14
[19] = test system: SF-295
[20] = test system: NCI-H23
[21] = test system: SN12C
[22] = test system: M19-MEL
[23] = test system: RXF 393
[24] = test system: HOP-92
[25] = test system: A549
[26] = test system: SNB-78
[27] = test system: OVCAR-8
[28] = test system: K562
[29] = test system: SW-620
[30] = test system: OVCAR-3
[31] = test system: SR
[32] = test system: 786-0
[33] = test system: RPMI-8226
[34] = test system: HCT-116
[35] = test system: EKVX
[36] = test system: NCI-H226
[37] = test system: UO-31
[38] = test system: SK-OV-3
[39] = test system: KM-20L2
[40] = test system: U-251
[41] = test system: OVCAR-4
[42] = test system: NCI-H522
[43] = test system: CCRF-CEM
[44] = test system: MOLT-4
[45] = test system: A498
[46] = test system: HCC 2998
[47] = test system: HT-29
[48] = test system: NCI-H460
[49] = test system: UACC-257
[50] = test system: LXFL 529
[51] = test system: SNB-75
[52] = test system: Malme-3M
[53] = test system: COLO 205
[54] = test system: DLD-1
[55] = test system: TK-10
[56] = test system: SK-MEL-5
[57] = test system: SK-MEL-28
[58] = test system: HOP-18
[59] = test system: NCI/ADR-RES
[60] = test system: MCF7

Measured: GI50

COC(=O)c1c(C)cc2c(c1O)C1(O)C(=O)c3cc4c(c(O)c3C(=O)C1(OC)C(O)C2)C(=O)C=C(NC1OC(C)C(OC)C(O)C1OC)C4=O (configuration not stated)
106 nM: [4]
active: [1] 68.1 nM | [2] 205 nM | [3] 13.4 nM | [5] 28.4 nM | [6] 10.4 nM | [7] 114 nM | [8] 159 nM | [9] 19.4 nM | [10] 34.2 nM | [11] 13.9 nM | [12] 142 nM | [13] 103 nM | [14] 60.5 nM | [15] 225 nM | [16] 129 nM | [17] 277 nM | [18] 119 nM | [19] 33.1 nM | [20] 15.2 nM | [21] 139 nM | [22] 19.6 nM | [23] 16.1 nM | [24] 260 nM | [25] 61.9 nM | [26] 52.1 nM | [27] 69.5 nM | [28] 20.4 nM | [29] 41.6 nM | [30] 110 nM | [31] 40.5 nM | [32] 75.3 nM | [33] 15.7 nM | [34] 37.8 nM | [35] 241 nM | [36] 189 nM | [37] 140 nM | [38] 298 nM | [39] 104 nM | [40] 207 nM | [41] 68.7 nM | [42] 55.2 nM | [43] 18.9 nM | [44] 20.8 nM | [45] 259 nM | [46] 138 nM | [47] 49.3 nM | [48] 98.6 nM | [49] 17 nM | [50] 67.9 nM | [51] 141 nM | [52] 53.8 nM | [53] 53.2 nM | [54] 19.9 nM | [55] 114 nM

CC(=O)OC(CC1(C)C(C)CCC23COC(=O)C2=CCCC31)c1ccoc1 (configuration not stated)
inactive: [1] 28800 nM | [2] 28200 nM | [5] 23400 nM | [6] 29900 nM | [7] 20800 nM | [8] 25400 nM | [10] 21300 nM | [11] 23100 nM | [12] 15900 nM | [14] 25900 nM | [16] 26200 nM | [17] 27500 nM | [18] 16300 nM | [19] 28700 nM | [20] 19000 nM | [21] 19900 nM | [22] 33800 nM | [23] 14200 nM | [24] 26200 nM | [25] 31600 nM | [26] 25400 nM | [27] 20300 nM | [56] 19500 nM | [28] 23400 nM | [29] 24900 nM | [30] 20800 nM | [32] 17100 nM | [34] 20500 nM | [35] 30500 nM | [36] 16700 nM | [37] 19100 nM | [38] 40800 nM | [39] 19300 nM | [57] 17700 nM | [40] 15800 nM | [41] 28100 nM | [42] 18500 nM | [43] 20200 nM | [44] 19500 nM | [45] 45300 nM | [46] 22300 nM | [47] 29600 nM | [48] 40400 nM | [49] 24000 nM | [50] 18400 nM | [51] 23300 nM | [52] 21800 nM | [53] 40400 nM | [54] 26000 nM
20400 nM: [4]

O=C1C=C2SC3C[C@@]24CC1(O)[N+]1=c2c4c(c(O)c4c2=C(C=N4)CC1)N3
inactive: [2] 2330 nM | [3] 1570 nM | [5] 1440 nM | [7] 1850 nM | [8] 1740 nM | [13] 1420 nM | [14] 1510 nM | [15] 2240 nM | [16] 1530 nM | [17] 1820 nM | [19] 1580 nM | [20] 1300 nM | [21] 1220 nM | [23] 1350 nM | [24] 1350 nM | [25] 2000 nM | [26] 1610 nM | [56] 1500 nM | [58] 2430 nM | [35] 4130 nM | [36] 1780 nM | [37] 1890 nM | [38] 1950 nM | [57] 1640 nM | [40] 1750 nM | [41] 1260 nM | [45] 1880 nM | [48] 2070 nM | [49] 1160 nM | [51] 1830 nM
1640 nM: [4]
active: [6] 219 nM | [9] 217 nM | [10] 546 nM | [11] 533 nM | [12] 1010 nM | [22] 285 nM | [27] 330 nM | [28] 640 nM | [29] 330 nM | [30] 206 nM | [59] 887 nM | [33] 457 nM | [34] 217 nM | [39] 313 nM | [42] 296 nM | [43] 321 nM | [44] 268 nM | [60] 278 nM | [47] 299 nM | [53] 176 nM | [54] 1110 nM
